From patent EP4567035A1, “NOVEL COMPOUND AS HYPOXIA-INDUCIBLE FACTOR 1(HIF-1) INHIBITOR OR VASCULAR ENDOTHELIAL GROWTH FACTOR (VEGF) INHIBITOR, AND PHARMACEUTICAL COMPOSITION COMPRISING SAME” (Nextgen Bioscience Co., Ltd., priority 2022, dated 2024)
Read-outs that look alike come from different tables or passages of the source.

Key:
VEGF = assay: Evaluation of VEGF protein secretion level (Human VEGF ELISA) in ARPE-19 cell medium under hypoxic conditions; assay type: cell-based
Description: ARPE-19 cells (Human retinal pigment epithelial cells, ATCC CRL-2302) were cultured in DMEM/F12 (LM002-08, Welgene) medium containing 10% fetal bovine serum (FBS, 16000-044, Gibco) in an incubator at 37°C with 5% carbon dioxide. When the cells grew sufficiently, they were cultured in experimental culture dishes for protein isolation and medium supernatant acquisition.
Cells were detached from the culture dish using TrypLE™ Express (Gibco). After centrifugation at 1000 rpm for 3 minutes, the supernatant was removed. The cells were counted and seeded into new culture dishes. Normoxic conditions were maintained by culturing the cells in a 37°C incubator with 5% carbon dioxide, and hypoxic conditions were maintained by culturing the cells in a hypoxic incubator with 1% oxygen, 5% carbon dioxide, and 94% nitrogen gas.
The expression of the downstream gene, angiogenesis inducer VEGF, is regulated by HIF-1α, a major transcription factor under hypoxic conditions, and the level of secreted VEGF protein can be quantitatively confirmed through ELISA (Enzyme Linked Immunosorbent Assay, Human VEGF Quantikine ELISA Kit, R&D systems). For this purpose, the following experiment was conducted.
The compounds of each Example were diluted to 0.1 nM, 1 nM, 3 nM, 10 nM, 30 nM, 100 nM, 300 nM, 1 µM and 10 µM in DMEM/F12 medium containing 1% fetal bovine serum, pretreated for 2 hours, and cultured for 24 hours under hypoxic conditions to obtain the cell medium supernatant. The supernatant was centrifuged at 1000 rpm for 3 minutes, and a specific amount was treated with a VEGF ELISA assay kit and the absorbance value was measured at 450 nm to quantitatively confirm the level of VEGF protein (see Table 1 below).
Based on the results of secreted VEGF protein expression levels in cell media treated with compounds diluted at concentrations ranging from 10 µM to 0.1 nM, the concentration range of the compound at which the secreted VEGF protein level was reduced by 50% or less compared to the untreated control group was derived.

HIF-1α = molecular target: T1, HIF-1α (Homo sapiens, UniProt Q16665); assay: Analysis of HIF-1α protein expression (Western blot) in ARPE-19 cells under mixed hypoxic condition; assay type: cell-based; conditions: concentration range at which HIF-1α expression is reduced by 50% vs untreated control
T1 construct: endogenous in cells; host or cells: ARPE-19 (ATCC CRL-2302)
T1 sequence (Q16665 whole entry): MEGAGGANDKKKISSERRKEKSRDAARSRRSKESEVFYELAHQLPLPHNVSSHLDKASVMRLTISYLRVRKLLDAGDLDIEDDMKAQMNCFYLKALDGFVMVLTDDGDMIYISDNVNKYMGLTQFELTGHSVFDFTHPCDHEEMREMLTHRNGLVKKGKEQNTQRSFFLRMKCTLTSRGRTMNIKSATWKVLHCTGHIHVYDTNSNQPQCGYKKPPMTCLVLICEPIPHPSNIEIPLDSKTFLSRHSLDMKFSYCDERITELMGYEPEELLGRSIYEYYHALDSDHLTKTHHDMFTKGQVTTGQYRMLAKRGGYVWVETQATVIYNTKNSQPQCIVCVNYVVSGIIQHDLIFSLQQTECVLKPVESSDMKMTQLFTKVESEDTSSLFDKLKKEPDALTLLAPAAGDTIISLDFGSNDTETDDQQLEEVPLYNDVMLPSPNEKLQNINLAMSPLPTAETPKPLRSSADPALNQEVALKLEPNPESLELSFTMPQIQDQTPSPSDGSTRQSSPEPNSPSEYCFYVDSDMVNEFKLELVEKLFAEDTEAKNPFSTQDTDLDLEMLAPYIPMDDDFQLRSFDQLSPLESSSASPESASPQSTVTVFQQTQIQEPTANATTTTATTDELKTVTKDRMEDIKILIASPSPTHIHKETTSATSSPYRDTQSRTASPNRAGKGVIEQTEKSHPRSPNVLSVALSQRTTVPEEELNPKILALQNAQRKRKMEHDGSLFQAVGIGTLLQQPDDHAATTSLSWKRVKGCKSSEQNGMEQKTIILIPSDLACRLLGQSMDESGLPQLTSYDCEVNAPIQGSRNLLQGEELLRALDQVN
In short: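 ARPE-19 cells were pretreated 16 h or 2 h with compound (0.1 nM–10 µM, serum-free DMEM/F12), then held 1 h or 24 h in mixed hypoxia (1% O2 plus CoCl2). HIF-1α was quantified by Western blot against β-actin; the concentration range giving ≥50% reduction vs untreated control was reported.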

[1] = ARPE-19 cells, pretreated 2 hours, 24 hours hypoxic conditions, ELISA, read-out: concentration at which the secreted VEGF protein level was suppressed to less than 50%
[2] = ARPE-19 cells, pretreated 2 hours, 24 hours hypoxic conditions, secreted VEGF in medium supernatant by ELISA, concentration range reducing VEGF by 50% vs untreated control, read-out: IC50 VEGF
[3] = Experimental Example 2 (HIF-1α Western blot), read-out: concentration at which the expression level of VEGF was suppressed to less than 50%
[4] = mixed hypoxic condition (1% oxygen + CoCl2) for 1 hour, read-out: IC50 HIF-1α Hypoxia (1 hour)
[5] = values marked * in the table, mixed hypoxic condition (1% oxygen + CoCl2) for 24 hours, read-out: IC50 HIF-1α, Hypoxia(24h)

Row | SMILES | IC50 (VEGF; [1]) [nM] | IC50 (VEGF; [2]) [nM] | IC50 (VEGF; [3]) [nM] | DC50 (HIF-1α; [4]) [nM] | DC50 (HIF-1α; [5]) [nM]
1 | O=C(NCc1cc(F)cc(-c2cn[nH]c2)c1)c1ncnc2nc(C3CCCC3)[nH]c12 [Example 11, 8-Cyclopentyl-N-(3-fluoro-5-(1H-pyrazol-4-yl)benzyl)-7H-purine-6-carboxamide] | < 100 | < 100 | < 100 | < 100 | 
2 | NC(=O)c1cccc(-n2cc(-c3cc(F)cc(CNC(=O)c4ncnc5nc(C6CCCC6)[nH]c45)c3)cn2)c1 [Example 37, N-(3-(1-(3-carbamoylphenyl)-1H-pyrazol-4-yl)-5-fluorobenzyl)-8-cyclopentyl-7H-purine-6-carboxamide] | < 100 | < 100 | < 100 |  | < 100
3 | O=C(NCc1cccc(-c2cnn(-c3ccc(F)cc3)c2)c1F)c1ncnc2nc(C3CCCC3)[nH]c12 [Example 95, 8-Cyclopentyl-N-(2-fluoro-3-(1-(4-fluorophenyl)-1H-pyrazol-4-yl)benzyl)-7H-purine-6-carboxamide] |  | 100 to 1000 |  |  | 100 to 1000
4 | O=C(NCc1cc(F)cc(Nc2ccc(F)cc2)c1)c1ncnc2nc(C3CCCC3)[nH]c12 [Example 21, 8-Cyclopentyl-N-(3-fluoro-5-((4-fluorophenyl)amino)benzyl)-7H-purine-6-carboxamide] |  | 100 to 1000 |  | < 100 | 
5 | COc1ccc(Nc2cc(F)cc(CNC(=O)c3ncnc4nc(C5CCCC5)n(C)c34)c2)cc1 [Example 36, 8-Cyclopentyl-N-(3-fluoro-5-((4-methoxyphenyl)amino)benzyl)-7-methyl-7H-purine-6-carboxamide] |  | 100 to 1000 |  | < 100 | 
6 | O=C(NCc1cc(F)cc(Nc2ccc(C(F)(F)F)cc2)c1)c1ncnc2nc(C3CCCC3)[nH]c12 [Example 41, 8-Cyclopentyl-N-(3-fluoro-5-((4-(trifluoromethyl)phenyl)amino)benzyl)-7H-purine-6-carboxamide] |  | 100 to 1000 |  | < 100 | 
7 | O=C(NCc1cc(F)cc(N2CCCN(c3ccc(F)cc3)CC2)c1)c1ncnc2nc(C3CCCC3)[nH]c12 [Example 137, 8-Cyclopentyl-N-(3-fluoro-5-(4-(4-fluorophenyl)-1,4-diazepan-1-yl)benzyl)-7H-purine-6-carboxamide] |  | > 10000 |  |  | 100 to 1000
8 | O=C(NCc1cc(F)cc(N2CCN(c3ccc(F)cc3)CC2)c1)c1ncnc2nc(C3CCCC3)[nH]c12 [Example 131, 8-Cyclopentyl-N-(3-fluoro-5-(4-(4-fluorophenyl)piperazin-1-yl)benzyl)-7H-purine-6-carboxamide] |  | > 10000 |  |  | 1000 to 10000
9 | Cn1cc(C(=O)Nc2cc(F)cc(CNC(=O)c3ncnc4nc(C5CCCC5)[nH]c34)c2)cn1 [Example 5, 8-Cyclopentyl-N-(3-fluoro-5-(1-methyl-1H-pyrazole-4-carboxamido)benzyl)-7H-purine-6-carboxamide] |  | 1000 to 10000 |  | 100 to 1000 | 
10 | O=C(NCc1cc(F)cc(-c2cnn(-c3ccc(F)cc3)c2)c1)c1ncnc2nc(C3CC4(CCC4)C3)[nH]c12 [Example 100, N-(3-fluoro-5-(1-(4-fluorophenyl)-1H-pyrazol-4-yl)benzyl)-8-(spiro[3.3]heptan-2-yl)-7H-purine-6-carboxamide] |  | 1000 to 10000 |  |  | 1000 to 10000
11 | Cc1c(-c2cc(F)cc(CNC(=O)c3ncnc4nc(C5CCCC5)[nH]c34)c2)cnn1-c1ccc(F)cc1 [Example 147, 8-Cyclopentyl-N-(3-fluoro-5-(1-(4-fluorophenyl)-5-methyl-1H-pyrazol-4-yl)benzyl)-7H-purine-6-carboxamide] |  | 100 to 1000 |  |  | 100 to 1000
12 | O=C(NCc1cc(F)cc(-c2cnn(CC(F)F)c2)c1)c1ncnc2nc(C3CCCC3)[nH]c12 [Example 2, 8-Cyclopentyl-N-(3-(1-(2,2-difluoroethyl)-1H-pyrazol-4-yl)-5-fluorobenzyl)-7H-purine-6-carboxamide] |  | 100 to 1000 |  | < 100 | 
13 | CN(C)c1ccc(Nc2cc(F)cc(CNC(=O)c3ncnc4nc(C5CCCC5)[nH]c34)c2)cc1 [Example 18, 8-Cyclopentyl-N-(3-((4-(dimethylamino)phenyl)amino)-5-fluorobenzyl)-7H-purine-6-carboxamide] |  | 100 to 1000 |  | < 100 | 
14 | O=C(NCc1cc(F)cc(-c2cnn(-c3ccc(F)cc3)c2)c1)c1ncnc2nc(C3CC(F)C3)[nH]c12 (single isomer, unassigned) [102(B), N-(3-Fluoro-5-(1-(4-fluorophenyl)-1H-pyrazol-4-yl)benzyl)-8-(3-fluorocyclobutyl)-7H-purine-6-carboxamide] |  | 100 to 1000 |  |  | 100 to 1000
15 | O=C(NCc1cc(F)cc(-c2cnn(-c3ccsc3)c2)c1)c1ncnc2nc(C3CCCC3)[nH]c12 [Example 117, 8-Cyclopentyl-N-(3-fluoro-5-(1-(thiophen-3-yl)-1H-pyrazol-4-yl)benzyl)-7H-purine-6-carboxamide] |  | 100 to 1000 |  |  | < 100
16 | O=C(NCc1cc(F)cc(-c2cnn(-c3ccc(F)cc3)c2)c1)c1ncnc2nc(C3CC4(CC4)C3)[nH]c12 [Example 111, N-(3-fluoro-5-(1-(4-fluorophenyl)-1H-pyrazol-4-yl)benzyl)-8-(spiro[2.3]hexan-5-yl)-7H-purine-6-carboxamide] |  | 100 to 1000 |  |  | < 100
17 | CC(=O)c1ccc(-n2cc(-c3cc(F)cc(CNC(=O)c4ncnc5nc(C6CCCC6)[nH]c45)c3)cn2)cc1 [Example 123, N-(3-(1-(4-acetylphenyl)-1H-pyrazol-4-yl)-5-fluorobenzyl)-8-cyclopentyl-7H-purine-6-carboxamide] |  | < 100 |  |  | < 100
18 | CS(=O)(=O)c1ccc(Cn2cc(-c3cc(F)cc(CNC(=O)c4ncnc5nc(C6CCCC6)[nH]c45)c3)cn2)cc1 [Example 24, 8-Cyclopentyl-N-(3-fluoro-5-(1-(4-(methylsulfonyl)benzyl)-1H-pyrazol-4-yl)benzyl)-7H-purine-6-carboxamide] |  | 100 to 1000 |  | < 100 | 
19 | C[C@H](NC(=O)c1ncnc2nc(C3CCCC3)[nH]c12)c1cccc(-c2cnn(C)c2)c1 [Example 4, (S)-8-cyclopentyl-N-(1-(3-(1-methyl-1H-pyrazol-4-yl)phenyl)ethyl)-7H-purine-6-carboxamide] |  | 1000 to 10000 |  | 100 to 1000 | 
20 | COc1cccc(Nc2cc(F)cc(CNC(=O)c3ncnc4nc(C5CCCC5)[nH]c34)c2)c1 [Example 34, 8-Cyclopentyl-N-(3-fluoro-5-((3-methoxyphenyl)amino)benzyl)-7H-purine-6-carboxamide] |  | 100 to 1000 |  | < 100 | 
21 | O=C(O)c1ccc(Nc2cc(F)cc(CNC(=O)c3ncnc4nc(C5CCCC5)[nH]c34)c2)cc1 [Example 133, 4-((3-((8-Cyclopentyl-7H-purine-6-carboxamido)methyl)-5-fluorophenyl)amino)benzoic acid] |  | > 10000 |  |  | 100 to 1000
22 | O=C(NCc1cc(F)cc(-c2cnn(-c3ccccc3)c2)c1)c1ncnc2nc(C3CCCC3)[nH]c12 [Example 7, 8-Cyclopentyl-N-(3-fluoro-5-(1-phenyl-1H-pyrazol-4-yl)benzyl)-7H-purine-6-carboxamide] |  | 100 to 1000 |  | < 100 | 
23 | O=C1CC[C@H](c2nc3ncnc(C(=O)NCc4cc(F)cc(-c5cnn(-c6ccc(F)cc6)c5)c4)c3[nH]2)C1 [Example 88, (S)-N-(3-fluoro-5-(1-(4-fluorophenyl)-1H-pyrazol-4-yl)benzyl)-8-(3-oxocyclopentyl)-7H-purine-6-carboxamide] |  | 100 to 1000 |  |  | 100 to 1000
24 | [2H]C([2H])([2H])n1cc(Nc2cc(F)cc(CNC(=O)c3ncnc4nc(C5CCC(F)(F)C5)[nH]c34)c2)cn1 (stereo not drawn) [Example 152, 8-(3,3-Difluorocyclopentyl)-N-(3-fluoro-5-((1-(methyl-d3)-1H-pyrazol-4-yl)amino)benzyl)-7H-purine-6-carboxamide] |  | 100 to 1000 |  |  | < 100
25 | Cn1cc(Nc2cc(F)cc(CNC(=O)c3ncnc4nc(C5CCC(F)(F)C5)[nH]c34)c2)cn1 (stereo not drawn) [Example 144, 8-(3,3-Difluorocyclopentyl)-N-(3-fluoro-5-((1-methyl-1H-pyrazol-4-yl)amino)benzyl)-7H-purine-6-carboxamide] |  | 100 to 1000 |  |  | < 100
